Results published in the OligoGym collection.
HELM strings list units from the 5' end as sugar, base in round brackets, then linkage (d deoxyribose, r ribose, m 2'-O-methyl, p phosphodiester). Strings are as the collection lists them, not checked against the first reports. ss, as = sense and antisense strand

Details: siRNA
Also: test system not given here.

Going from “RNA1{m(G)p.m(G)p.m(A)p.r(C)p.r(U)p.m(A)p.r(C)p.r(U)p.m(A)p.m(A)p.r(C)p.r(C)p.r(U)p.r(C)p.r(C)p.m(A)p.m(G)p.r(U)p.r(U)p.r(T)p.r(T)}|RNA2{r(A)p.r(A)p.r(C)p.r(U)p.r(G)p.r(G)p.r(A)p.r(G)p.r(G)p.r(U)p.r(U)p.r(A)p.r(G)p.r(U)p.r(A)p.r(G)p.r(U)p.r(C)p.r(C)p.r(T)p.r(T)}$$$RNA1{StrandType:ss}|RNA2{StrandType:as}$” to “RNA1{m(G)p.r(A)p.m(A)p.r(A)p.m(A)p.r(C)p.m(G)p.r(C)p.m(U)p.r(U)p.m(G)p.r(U)p.m(A)p.r(A)p.m(A)p.r(G)p.m(C)p.r(C)p.m(G)p.r(T)p.r(T)}|RNA2{r(C)p.r(G)p.r(G)p.r(C)p.r(U)p.r(U)p.r(U)p.m(A)p.r(C)p.m(A)p.m(A)p.r(G)p.r(C)p.r(G)p.r(U)p.r(U)p.r(U)p.r(U)p.r(C)p.r(T)p.r(T)}$$$RNA1{StrandType:ss}|RNA2{StrandType:as}$”, the target mRNA knockdown falls from 65% to 23%.

Compared with “RNA1{m(G)p.r(A)p.m(A)p.r(A)p.m(C)p.r(U)p.m(G)p.r(G)p.m(U)p.r(A)p.m(C)p.r(U)p.m(U)p.r(U)p.m(C)p.r(C)p.m(C)p.r(C)p.m(C)p.r(T)p.r(T)}|RNA2{r(G)p.r(G)p.r(G)p.r(G)p.r(G)p.r(A)p.r(A)p.r(A)p.r(G)p.r(U)p.r(A)p.r(C)p.r(C)p.r(A)p.r(G)p.r(U)p.r(U)p.r(U)p.r(C)p.r(T)p.r(T)}$$$RNA1{StrandType:ss}|RNA2{StrandType:as}$”, “RNA1{m(G)p.r(A)p.m(A)p.r(G)p.m(A)p.r(G)p.m(C)p.r(C)p.m(U)p.r(A)p.m(C)p.r(A)p.m(C)p.r(A)p.m(A)p.r(C)p.m(C)p.r(C)p.m(U)p.r(T)p.r(T)}|RNA2{r(A)p.m(G)p.m(G)p.m(G)p.r(U)p.r(U)p.m(G)p.r(U)p.m(G)p.r(U)p.r(A)p.m(G)p.m(G)p.r(C)p.r(U)p.r(C)p.r(U)p.r(U)p.r(C)p.r(T)p.r(T)}$$$RNA1{StrandType:ss}|RNA2{StrandType:as}$” is lower in target mRNA knockdown: 57% for the first, 43% for the second.

Compared with “RNA1{m(G)p.r(A)p.m(A)p.r(G)p.m(A)p.r(G)p.m(C)p.r(C)p.m(U)p.r(A)p.m(C)p.r(A)p.m(C)p.r(A)p.m(A)p.r(C)p.m(C)p.r(C)p.m(U)p.r(T)p.r(T)}|RNA2{r(A)p.r(G)p.r(G)p.r(G)p.r(U)p.r(U)p.r(G)p.r(U)p.m(G)p.r(U)p.m(A)p.r(G)p.m(G)p.r(C)p.m(U)p.r(C)p.m(U)p.r(U)p.m(C)p.r(T)p.r(T)}$$$RNA1{StrandType:ss}|RNA2{StrandType:as}$”, “RNA1{m(G)p.r(A)p.m(A)p.r(G)p.m(A)p.r(G)p.m(U)p.r(U)p.m(A)p.r(A)p.m(C)p.r(C)p.m(C)p.r(G)p.m(G)p.r(G)p.m(A)p.r(C)p.r(U)p.r(T)p.r(T)}|RNA2{r(A)p.r(G)p.r(U)p.r(C)p.r(C)p.r(C)p.r(G)p.r(G)p.r(G)p.r(U)p.r(U)p.r(A)p.r(A)p.r(C)p.r(U)p.r(C)p.r(U)p.r(U)p.r(C)p.r(T)p.r(T)}$$$RNA1{StrandType:ss}|RNA2{StrandType:as}$” is lower in target mRNA knockdown: 50% for the first, 17% for the second.

Compared with “RNA1{m(G)p.r(A)p.m(A)p.r(G)p.m(G)p.r(G)p.m(G)p.r(A)p.m(A)p.r(A)p.m(U)p.r(C)p.m(U)p.r(G)p.m(U)p.r(G)p.m(G)p.r(U)p.m(U)p.r(T)p.r(T)}|RNA2{r(A)p.r(A)p.r(C)p.r(C)p.r(A)p.r(C)p.r(A)p.r(G)p.r(A)p.r(U)p.r(U)p.r(U)p.r(C)p.r(C)p.r(C)p.r(C)p.r(U)p.r(U)p.r(C)p.r(T)p.r(T)}$$$RNA1{StrandType:ss}|RNA2{StrandType:as}$”, “RNA1{m(G)p.r(A)p.m(A)p.r(U)p.m(A)p.r(A)p.m(C)p.r(C)p.m(U)p.r(G)p.m(A)p.r(A)p.m(C)p.r(G)p.m(U)p.r(C)p.m(A)p.r(C)p.m(C)p.r(T)p.r(T)}|RNA2{r(G)p.r(G)p.r(U)p.r(G)p.m(A)p.r(C)p.r(G)p.r(U)p.r(U)p.r(C)p.m(A)p.r(G)p.r(G)p.r(U)p.r(U)p.m(A)p.r(U)p.r(U)p.r(C)p.r(T)p.r(T)}$$$RNA1{StrandType:ss}|RNA2{StrandType:as}$” is lower in target mRNA knockdown: 41% for the first, 21% for the second.

First: RNA1{m(G)p.r(A)p.m(A)p.r(U)p.m(A)p.r(A)p.m(C)p.r(C)p.m(U)p.r(G)p.m(A)p.r(A)p.m(C)p.r(G)p.m(U)p.r(C)p.m(A)p.r(C)p.m(C)p.r(T)p.r(T)}|RNA2{r(G)p.r(G)p.r(U)p.r(G)p.r(A)p.r(C)p.r(G)p.r(U)p.r(U)p.r(C)p.r(A)p.r(G)p.r(G)p.r(U)p.r(U)p.r(A)p.r(U)p.r(U)p.r(C)p.r(T)p.r(T)}$$$RNA1{StrandType:ss}|RNA2{StrandType:as}$
Second: RNA1{m(G)p.r(A)p.m(C)p.r(A)p.m(A)p.r(G)p.m(G)p.r(G)p.m(A)p.r(A)p.m(G)p.r(G)p.m(U)p.r(U)p.m(A)p.r(G)p.m(C)p.r(C)p.m(U)p.r(T)p.r(T)}|RNA2{r(A)p.r(G)p.r(G)p.r(C)p.r(U)p.r(A)p.r(A)p.r(C)p.r(C)p.r(U)p.r(U)p.r(C)p.r(C)p.r(C)p.r(U)p.r(U)p.r(G)p.r(U)p.r(C)p.r(T)p.r(T)}$$$RNA1{StrandType:ss}|RNA2{StrandType:as}$
The target mRNA knockdown of the first is lower: 17% for the first, 34% for the second.

Compared with “RNA1{m(G)p.r(A)p.m(G)p.r(A)p.m(G)p.r(A)p.m(G)p.r(A)p.m(C)p.r(G)p.m(G)p.r(U)p.m(G)p.r(G)p.m(A)p.r(A)p.m(G)p.r(A)p.m(A)p.r(T)p.r(T)}|RNA2{r(U)p.r(U)p.r(C)p.r(U)p.r(U)p.r(C)p.r(C)p.r(A)p.r(C)p.r(C)p.m(G)p.r(U)p.r(C)p.r(U)p.r(C)p.r(U)p.r(C)p.r(U)p.r(C)p.r(T)p.r(T)}$$$RNA1{StrandType:ss}|RNA2{StrandType:as}$”, “RNA1{m(G)p.r(A)p.m(G)p.r(G)p.m(A)p.r(U)p.m(G)p.r(G)p.m(A)p.r(U)p.m(U)p.r(C)p.m(G)p.r(A)p.m(C)p.r(U)p.m(U)p.r(A)p.r(G)p.r(T)p.r(T)}|RNA2{r(C)p.m(U)p.r(A)p.r(A)p.r(G)p.m(U)p.r(C)p.r(G)p.r(A)p.r(A)p.m(U)p.r(C)p.r(C)p.r(A)p.r(U)p.r(C)p.r(C)p.r(U)p.r(C)p.r(T)p.r(T)}$$$RNA1{StrandType:ss}|RNA2{StrandType:as}$” is lower in target mRNA knockdown: 56% for the first, 23% for the second.

Going from “RNA1{m(G)p.r(A)p.m(U)p.r(A)p.m(C)p.r(U)p.m(U)p.r(C)p.m(U)p.r(G)p.m(G)p.r(U)p.m(U)p.r(C)p.m(C)p.r(C)p.m(U)p.r(C)p.m(C)p.r(T)p.r(T)}|RNA2{r(G)p.r(G)p.r(A)p.r(G)p.r(G)p.r(G)p.r(A)p.r(A)p.r(C)p.r(C)p.r(A)p.r(G)p.r(A)p.r(A)p.r(G)p.r(U)p.r(A)p.r(U)p.r(C)p.r(T)p.r(T)}$$$RNA1{StrandType:ss}|RNA2{StrandType:as}$” to “RNA1{m(G)p.r(A)p.m(U)p.r(U)p.m(C)p.r(C)p.m(A)p.r(A)p.m(A)p.r(C)p.m(C)p.r(C)p.m(C)p.r(A)p.m(C)p.r(U)p.m(A)p.r(U)p.m(C)p.r(T)p.r(T)}|RNA2{r(G)p.r(A)p.r(U)p.r(A)p.r(G)p.r(U)p.r(G)p.r(G)p.r(G)p.r(G)p.r(U)p.r(U)p.r(U)p.r(G)p.r(G)p.r(A)p.r(A)p.r(U)p.r(C)p.r(T)p.r(T)}$$$RNA1{StrandType:ss}|RNA2{StrandType:as}$”, the target mRNA knockdown rises from 45% to 54%.

Compared with “RNA1{m(G)p.r(C)p.m(A)p.m(G)p.m(A)p.m(G)p.m(A)p.m(A)p.r(U)p.r(C)p.r(U)p.m(A)p.r(C)p.r(C)p.r(U)p.r(U)p.r(U)p.r(C)p.r(C)p.r(T)p.r(T)}|RNA2{r(G)p.r(G)p.r(A)p.r(A)p.r(A)p.r(G)p.r(G)p.r(U)p.r(A)p.r(G)p.r(A)p.r(U)p.r(U)p.r(C)p.r(U)p.r(C)p.r(U)p.r(G)p.r(C)p.r(T)p.r(T)}$$$RNA1{StrandType:ss}|RNA2{StrandType:as}$”, “RNA1{m(G)p.r(C)p.m(A)p.r(A)p.m(G)p.r(U)p.m(G)p.r(G)p.m(C)p.r(A)p.m(A)p.r(G)p.m(A)p.r(G)p.m(G)p.r(A)p.m(U)p.r(U)p.r(A)p.r(T)p.r(T)}|RNA2{r(U)p.r(A)p.r(A)p.r(U)p.r(C)p.r(C)p.r(U)p.r(C)p.r(U)p.r(U)p.r(G)p.r(C)p.r(C)p.r(A)p.r(C)p.r(U)p.r(U)p.r(G)p.r(C)p.r(T)p.r(T)}$$$RNA1{StrandType:ss}|RNA2{StrandType:as}$” is lower in target mRNA knockdown: 65% for the first, 55% for the second.

Compared with “RNA1{m(G)p.r(C)p.m(G)p.m(A)p.m(G)p.r(C)p.m(A)p.m(G)p.m(A)p.m(G)p.m(A)p.m(A)p.r(U)p.r(C)p.r(U)p.m(A)p.r(C)p.r(C)p.r(U)p.r(T)p.r(T)}|RNA2{r(A)p.r(G)p.r(G)p.r(U)p.r(A)p.r(G)p.r(A)p.r(U)p.r(U)p.r(C)p.r(U)p.r(C)p.r(U)p.r(G)p.r(C)p.r(U)p.r(C)p.r(G)p.r(C)p.r(T)p.r(T)}$$$RNA1{StrandType:ss}|RNA2{StrandType:as}$”, “RNA1{m(G)p.r(C)p.m(U)p.r(G)p.m(A)p.r(G)p.m(G)p.r(A)p.m(A)p.r(A)p.m(G)p.r(G)p.m(G)p.r(A)p.m(C)p.r(A)p.m(U)p.r(C)p.m(U)p.r(T)p.r(T)}|RNA2{r(A)p.r(G)p.r(A)p.r(U)p.r(G)p.r(U)p.r(C)p.r(C)p.r(C)p.r(U)p.r(U)p.r(U)p.r(C)p.r(C)p.r(U)p.r(C)p.r(A)p.r(G)p.r(C)p.r(T)p.r(T)}$$$RNA1{StrandType:ss}|RNA2{StrandType:as}$” is lower in target mRNA knockdown: 65% for the first, 61% for the second.

Compared with “RNA1{m(G)p.r(C)p.m(U)p.r(U)p.m(U)p.r(A)p.m(A)p.r(G)p.m(G)p.r(A)p.m(A)p.r(C)p.m(U)p.r(G)p.m(G)p.r(A)p.m(A)p.r(G)p.m(G)p.r(T)p.r(T)}|RNA2{r(C)p.m(C)p.r(U)p.m(U)p.r(C)p.m(C)p.r(A)p.m(G)p.r(U)p.m(U)p.r(C)p.r(C)p.r(U)p.r(U)p.r(A)p.r(A)p.r(A)p.r(G)p.r(C)p.r(T)p.r(T)}$$$RNA1{StrandType:ss}|RNA2{StrandType:as}$”, “RNA1{m(G)p.r(C)p.m(U)p.r(U)p.m(U)p.r(A)p.m(A)p.r(G)p.m(G)p.r(A)p.m(A)p.r(C)p.m(U)p.r(G)p.m(G)p.r(A)p.m(A)p.r(G)p.m(G)p.r(T)p.r(T)}|RNA2{r(C)p.r(C)p.r(U)p.r(U)p.r(C)p.r(C)p.r(A)p.m(G)p.r(U)p.r(U)p.r(C)p.r(C)p.r(U)p.r(U)p.r(A)p.r(A)p.r(A)p.m(G)p.r(C)p.r(T)p.r(T)}$$$RNA1{StrandType:ss}|RNA2{StrandType:as}$” is higher in target mRNA knockdown: 25% for the first, 51% for the second.

Work on “RNA1{m(G)p.r(G)p.m(A)p.r(A)p.m(G)p.r(U)p.m(A)p.r(A)p.m(G)p.r(G)p.m(A)p.r(C)p.m(C)p.r(A)p.m(G)p.r(A)p.m(G)p.r(A)p.m(C)p.r(T)p.r(T)}|RNA2{m(G)p.r(U)p.r(C)p.r(U)p.r(C)p.r(U)p.m(G)p.m(G)p.r(U)p.r(C)p.r(C)p.r(U)p.r(U)p.r(A)p.r(C)p.r(U)p.r(U)p.r(C)p.r(C)p.r(T)p.r(T)}$$$RNA1{StrandType:ss}|RNA2{StrandType:as}$” yielded a target mRNA knockdown of 23%.
